biological target: T1, human Werner helicase (WRN-BV08, Uniprot Q14191, amino acids 517-1235 with L1074F point mutation) (Homo sapiens, UniProt Q14191, L1074F); test: WRN (BV08) ADP-Glo Assay; type: biochemical; conditions: 0.15 nM WRN, 5 μM ATP, 0.1 nM DNA duplex, 15 min preincubation, 60 min at 25° C., pH 7.5, 1% DMSO; read-out: ADP-Glo_hWRN_IC50
T1 construct: Uniprot Q14191, amino acids 517-1235 with L1074F point mutation; TEV-cleavable 8×His (C, cleaved yes); made in house; host or cells: Sf9 insect cells (baculovirus)
Procedure, shortened: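 Percent inhibition was normalised to DMSO (max) and 20 μM NSC-617145 (min) controls from ADP-Glo luminescence, and IC50 values came from a four-parameter fit. The reaction ran 60 min at 25 °C with 0.15 nM WRN, 5 μM ATP and 0.1 nM duplex DNA.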

T1 sequence (Q14191 with tags, fused parts or gaps L1074F limits assumed): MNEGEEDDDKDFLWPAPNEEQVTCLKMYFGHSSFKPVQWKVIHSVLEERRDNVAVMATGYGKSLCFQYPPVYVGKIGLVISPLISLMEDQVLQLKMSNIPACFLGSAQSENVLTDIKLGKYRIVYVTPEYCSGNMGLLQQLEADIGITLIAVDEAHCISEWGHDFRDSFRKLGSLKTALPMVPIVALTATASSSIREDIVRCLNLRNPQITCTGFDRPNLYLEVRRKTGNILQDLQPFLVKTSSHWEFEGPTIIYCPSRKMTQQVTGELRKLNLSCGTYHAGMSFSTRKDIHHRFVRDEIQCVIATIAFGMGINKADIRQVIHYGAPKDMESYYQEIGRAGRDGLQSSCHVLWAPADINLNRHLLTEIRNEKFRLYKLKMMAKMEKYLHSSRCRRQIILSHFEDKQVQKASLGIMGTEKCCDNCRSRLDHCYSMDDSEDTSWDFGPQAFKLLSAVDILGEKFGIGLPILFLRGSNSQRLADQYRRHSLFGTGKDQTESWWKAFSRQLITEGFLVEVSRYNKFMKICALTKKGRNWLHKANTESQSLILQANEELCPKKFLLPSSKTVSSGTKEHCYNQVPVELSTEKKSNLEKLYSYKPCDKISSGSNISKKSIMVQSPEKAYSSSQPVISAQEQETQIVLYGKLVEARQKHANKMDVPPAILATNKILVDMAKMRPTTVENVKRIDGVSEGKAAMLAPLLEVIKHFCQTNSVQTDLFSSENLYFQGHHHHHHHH

SMILES | IC50
O=C(Cc1ccc(-n2cccc2)cc1)N(CC12CCC(CC1)CC2)C1C=CS(=O)(=O)C1 (centres unmarked) [I-545, N-({bicyclo[2.2.2]octan-1-yl}methyl)-N-(1,1-dioxo-2,3-dihydro-1lambda6-thiophen-3-yl)-2-[4-(1H-pyrrol-1-yl)phenyl]acetamide] | > 50 µM
COc1cc(CN(C(=O)C(OCCC#N)c2ccc(-c3ccc(F)c(F)c3)cc2F)[C@@H]2C=CS(=O)(=O)C2)ccn1 (single isomer, unassigned) [I-736, (2R*)-2-(2-cyanoethoxy)-N-[(3R)-1,1-dioxo-2,3-dihydro-1lambda6-thiophen-3-yl]-N-[(2-methoxypyridin-4-yl)methyl]-2-{3,3′,4′-trifluoro-[1,1′-biphenyl]-4-yl}acetamide] | > 50 µM
CC(C)(O)c1cc(CN(C(=O)Cc2ccc(-n3cccc3)cc2F)C2C=CS(=O)(=O)C2)ccn1 (single isomer, unassigned) [I-469] | > 50 µM
CN(C)C(=O)C(C(=O)N(Cc1ccncc1)C1C=CS(=O)(=O)C1)c1ccc(-c2ccc(F)cc2)cc1 (single isomer, unassigned) [I-374, (2R**)-N′-[(3R*)-1,1-dioxo-2,3-dihydro-1lambda6-thiophen-3-yl]-2-{4′-fluoro-[1,1′-biphenyl]-4-yl}-N,N-dimethyl-N′-[(pyridin-4-yl)methyl]propanediamide] | > 50 µM
O=C(N(Cc1ccncc1)C1C=CS(=O)(=O)C1)C(F)(F)n1cc(-c2ccccc2)nn1 (centres unmarked) [I-581, N-(1,1-dioxo-2,3-dihydro-1lambda6-thiophen-3-yl)-2,2-difluoro-2-(4-phenyl-1H-1,2,3-triazol-1-yl)-N-[(pyridin-4-yl)methyl]acetamide] | > 50 µM
Cn1cc2cc(CC(=O)N(Cc3ccncc3)C3C=CS(=O)(=O)C3)ccc2n1 (centres unmarked) [I-656, N-(1,1-dioxo-2,3-dihydro-1lambda6-thiophen-3-yl)-2-(2-methyl-2H-indazol-5-yl)-N-[(pyridin-4-yl)methyl]acetamide] | > 50 µM
O=C(C1CCn2cc(C(F)(F)F)nc2C1)N(Cc1ccncc1)C1C=CS(=O)(=O)C1 (centres unmarked) [I-622] | > 50 µM
Cn1cc(CN(C(=O)Cc2ccc(-n3cccc3)cc2)C2C=CS(=O)(=O)C2)cn1 (centres unmarked) [I-481, N-(1,1-dioxo-2,3-dihydro-1lambda6-thiophen-3-yl)-N-[(1-methyl-1H-pyrazol-4-yl)methyl]-2-[4-(1H-pyrrol-1-yl)phenyl]acetamide] | > 50 µM
CC(C)(O)c1csc(CN(C(=O)Cc2ccc(S(F)(F)(F)(F)F)cc2)C2C=CS(=O)(=O)C2)n1 (centres unmarked) [I-637, N-(1,1-dioxo-2,3-dihydro-1lambda6-thiophen-3-yl)-N-{[4-(2-hydroxypropan-2-yl)-1,3-thiazol-2-yl]methyl}-2-[4-(pentafluoro-lambda6-sulfanyl)phenyl]acetamide] | 10 to 50 µM
O=C(Cc1ccc(-n2cccc2)cc1)N(Cc1ccccc1)C1C=C(Br)S(=O)(=O)C1 (centres unmarked) [I-269, 2-(4-(1H-pyrrol-1-yl)phenyl)-N-benzyl-N-(5-bromo-1,1-dioxido-2,3-dihydrothiophen-3-yl)acetamide] | 10 to 50 µM
O=C(Cc1cnn(Cc2ccccc2)c1)N(Cc1ccncc1)C1C=CS(=O)(=O)C1 (centres unmarked) [I-544, 2-(1-benzyl-1H-pyrazol-4-yl)-N-(1,1-dioxo-2,3-dihydro-1lambda6-thiophen-3-yl)-N-[(pyridin-4-yl)methyl]acetamide] | > 50 µM
O=C(C1CC(c2ccccc2)O1)N(Cc1ccncc1)C1C=CS(=O)(=O)C1 (centres unmarked) [I-647, N-(1,1-dioxo-2,3-dihydro-1lambda6-thiophen-3-yl)-4-phenyl-N-[(pyridin-4-yl)methyl]oxetane-2-carboxamide] | > 50 µM
Cc1cccc(-c2ccc(CC(=O)N(Cc3ccncc3)C3C=CS(=O)(=O)C3)cc2)c1 (centres unmarked) [I-288, N-(1,1-dioxo-2,3-dihydro-1lambda6-thiophen-3-yl)-2-{3′-methyl-[1,1′-biphenyl]-4-yl}-N-[(pyridin-4-yl)methyl]acetamide] | 10 to 50 µM

Next, values leading:

IC50 | SMILES
5 to 10 µM | CC(C(=O)N(Cc1ccncc1)C1C=CS(=O)(=O)C1)c1ccc(-c2ccc(F)cc2)cc1 (centres unmarked) [I-266, N-(1,1-dioxo-2,3-dihydro-1lambda6-thiophen-3-yl)-2-{4′-fluoro-[1,1′-biphenyl]-4-yl}-N-[(pyridin-4-yl)methyl]propanamide]
0.5 to 5 µM | CC(C)(O)c1ccc(CN(C(=O)Cc2ccc(S(F)(F)(F)(F)F)cc2)C2C=CS(=O)(=O)C2)cc1 (centres unmarked) [I-623, N-(1,1-dioxo-2,3-dihydro-1lambda6-thiophen-3-yl)-N-{[4-(2-hydroxypropan-2-yl)phenyl]methyl}-2-[4-(pentafluoro-lambda6-sulfanyl)phenyl]acetamide]
5 to 10 µM | CS(=O)(=O)c1ccc(CN(C(=O)Cc2ccc(-n3cccc3)cc2)C2C=CS(=O)(=O)C2)cc1 (centres unmarked) [I-256, N-(1,1-dioxo-2,3-dihydro-1lambda6-thiophen-3-yl)-N-[(4-methanesulfonylphenyl)methyl]-2-[4-(1H-pyrrol-1-yl)phenyl]acetamide]
0.5 to 5 µM | CN(C)C(=O)C(C(=O)N(Cc1ccnc(C(C)(C)O)c1)C1C=CS(=O)(=O)C1)n1cc(-c2ccccc2)cn1 (centres unmarked) [I-594, N′-(1,1-dioxo-2,3-dihydro-1lambda6-thiophen-3-yl)-N′-{[2-(2-hydroxypropan-2-yl)pyridin-4-yl]methyl}-N,N-dimethyl-2-(4-phenyl-1H-pyrazol-1-yl)propanediamide]
< 0.5 µM | COc1cc(CN(C(=O)Cn2cc(-c3ccc(F)cc3)cn2)[C@@H]2C=CS(=O)(=O)C2)ccn1 [I-26, N-[(3R)-1,1-dioxo-2,3-dihydro-1lambda6-thiophen-3-yl]-2-[4-(4-fluorophenyl)-1H-pyrazol-1-yl]-N-[(2-methoxypyridin-4-yl)methyl]acetamide]
0.5 to 5 µM | N#CC1=CC(N(Cc2ccccc2)C(=O)Cc2ccc(-c3ccc(F)cc3)cc2)CS1(=O)=O (centres unmarked) [I-728, N-benzyl-N-(5-cyano-1,1-dioxo-2,3-dihydro-1lambda6-thiophen-3-yl)-2-{4′-fluoro-[1,1′-biphenyl]-4-yl}acetamide]
< 0.5 µM | COc1cc(CN(C(=O)C(c2ccc(-c3ccc(F)c(F)c3)cc2F)n2nccn2)[C@@H]2C=CS(=O)(=O)C2)ccn1 (stereo partly drawn) [I-733, N-[(3R)-1,1-dioxo-2,3-dihydro-1lambda6-thiophen-3-yl]-N-[(2-methoxypyridin-4-yl)methyl]-2-(2H-1,2,3-triazol-2-yl)-2-{3,3′,4′-trifluoro-[1,1′-biphenyl]-4-yl}acetamide]
10 to 50 µM | CC(C)(O)c1cc(CN(C(=O)Cc2cc(-c3ccc(F)c(F)c3)n[nH]2)C2C=CS(=O)(=O)C2)ccn1 (single isomer, unassigned) [I-781]
0.5 to 5 µM | COc1cc(CN(C(=O)Cc2ccc(C(F)(F)F)cc2)C2C=CS(=O)(=O)C2)ccn1 (centres unmarked) [I-105, N-(1,1-dioxo-2,3-dihydro-1lambda6-thiophen-3-yl)-N-[(2-methoxypyridin-4-yl)methyl]-2-[4-(trifluoromethyl)phenyl]acetamide]
10 to 50 µM | O=C(CCCC[C@@H]1SC[C@@H]2NC(=O)N[C@@H]21)NCCOCCOCCOCCOCCC(=O)Nc1ccc(Cn2cc(CCCC(=O)N3CCN(C(=O)c4ccc(CN(C(=O)Cc5ccc(-n6cccc6)cc5F)C5C=CS(=O)(=O)C5)cc4)CC3)nn2)nc1 (stereo partly drawn) [II-3, 1-{5-[(3aS,4S,6aR)-2-oxo-hexahydro-1H-thieno[3,4-d]imidazol-4-yl]pentanamido}-N-{6-[(4-{4-[4-(4-{[N-(1,1-dioxo-2,3-dihydro-1lambda6-thiophen-3-yl)-2-[2-fluoro-4-(1H-pyrrol-1-yl)phenyl]acetamido]methyl}benzoyl)piperazin-1-yl]-4-oxobutyl}-1H-1,2,3-triazol-1-yl)methyl]pyridin-3-yl}-3,6,9,12-tetraoxapentadecan-15-amide]
< 0.5 µM | COc1cc(CN(C(=O)Cc2ccc(-c3ccc(F)c(F)c3)cc2F)C2C=CS(=O)(=O)C2)ccn1 (centres unmarked) [I-64, N-(1,1-dioxo-2,3-dihydro-1lambda6-thiophen-3-yl)-N-[(2-methoxypyridin-4-yl)methyl]-2-{3,3′,4′-trifluoro-[1,1′-biphenyl]-4-yl}acetamide]
10 to 50 µM | O=C(Cc1ncc(-c2ccccc2)s1)N(Cc1ccncc1)C1C=CS(=O)(=O)C1 (centres unmarked) [I-300, N-(1,1-dioxo-2,3-dihydro-1lambda6-thiophen-3-yl)-2-(5-phenyl-1,3-thiazol-2-yl)-N-[(pyridin-4-yl)methyl]acetamide]
0.5 to 5 µM | CC(C)(O)c1cc(CN(C(=O)Cc2ccc(S(F)(F)(F)(F)F)cc2)[C@H]2C=CS(=O)(=O)C2)ccn1 [I-230, N-[(3S)-1,1-dioxo-2,3-dihydro-1lambda6-thiophen-3-yl]-N-{[2-(2-hydroxypropan-2-yl)pyridin-4-yl]methyl}-2-[4-(pentafluoro-lambda6-sulfanyl)phenyl]acetamide]
0.5 to 5 µM | CCOc1cc(CN(C(=O)Cc2ccc(-c3ccc(F)cc3)cc2F)C2C=CS(=O)(=O)C2)ccn1 (centres unmarked) [I-84, 2-{3,4′-difluoro-[1,1′-biphenyl]-4-yl}-N-(1,1-dioxo-2,3-dihydro-1lambda6-thiophen-3-yl)-N-[(2-ethoxypyridin-4-yl)methyl]acetamide]
< 0.5 µM | COc1cc(CN(C(=O)C(C(=O)N(C)C)c2ccc(-c3ccc(F)c(F)c3)cc2F)C2C=CS(=O)(=O)C2)ccn1 (centres unmarked) [I-37, N′-(1,1-dioxo-2,3-dihydro-1lambda6-thiophen-3-yl)-N′-[(2-methoxypyridin-4-yl)methyl]-N,N-dimethyl-2-{3,3′,4′-trifluoro-[1,1′-biphenyl]-4-yl}propanediamide]
5 to 10 µM | CCC(C)c1ccc(CC(=O)N(Cc2ccncc2)C2C=CS(=O)(=O)C2)cc1 (centres unmarked) [I-216, 2-[4-(butan-2-yl)phenyl]-N-(1,1-dioxo-2,3-dihydro-1lambda6-thiophen-3-yl)-N-[(pyridin-4-yl)methyl]acetamide]
